Experimental data from ChEMBL document CHEMBL3352227, “Synthesis, antimycobacterial and antibacterial evaluation of l-[(1R, 2S)-2-fluorocyclopropyl]fluoroquinolone derivatives containing an oxime functional moiety” (Eur J Med Chem, 2014).
Values after ≈ are worked out from the molar mass of the structure shown.

Assays:
Format in all cases: functional
Escherichia coli [1] = assay: Antibacterial activity against extended-spectrum beta-lactamase producing Escherichia coli 12-14 after 18 to 24 hrs by standard twofold serial dilution method
Klebsiella pneumoniae [2] = assay: Antibacterial activity against extended-spectrum beta-lactamase producin Klebsiella pneumoniae 12-14 after 18 to 24 hrs by standard twofold serial dilution method
Escherichia coli [3] = assay: Antibacterial activity against extended-spectrum beta-lactamase producing Escherichia coli 12-15 after 18 to 24 hrs by standard twofold serial dilution method
Staphylococcus aureus [4] = assay: Antibacterial activity against methicillin-sensitive Staphylococcus aureus 12-2 after 18 to 24 hrs by standard twofold serial dilution method
Pseudomonas aeruginosa [5] = assay: Antibacterial activity against Pseudomonas aeruginosa 12-12 after 18 to 24 hrs by standard twofold serial dilution method
Klebsiella pneumoniae [6] = assay: Antibacterial activity against extended-spectrum beta-lactamase producin Klebsiella pneumoniae 12-7 after 18 to 24 hrs by standard twofold serial dilution method
Staphylococcus aureus [7] = assay: Antibacterial activity against methicillin-sensitive Staphylococcus aureus 12-1 after 18 to 24 hrs by standard twofold serial dilution method
[8] = tested on: Staphylococcus epidermidis; assay: Antibacterial activity against methicillin-sensitive Staphylococcus epidermidis 12-3 after 18 to 24 hrs by standard twofold serial dilution method
Klebsiella pneumoniae [9] = assay: Antibacterial activity against Klebsiella pneumoniae 12-1 after 18 to 24 hrs by standard twofold serial dilution method
Klebsiella pneumoniae [10] = assay: Antibacterial activity against Klebsiella pneumoniae 12-4 after 18 to 24 hrs by standard twofold serial dilution method
Escherichia coli [11] = assay: Antibacterial activity against Escherichia coli 12-1 after 18 to 24 hrs by standard twofold serial dilution method
Escherichia coli [12] = assay: Antibacterial activity against Escherichia coli ATCC 25922 after 18 to 24 hrs by standard twofold serial dilution method
Streptococcus pneumoniae [13] = assay: Antibacterial activity against Streptococcus pneumoniae 12-18 after 18 to 24 hrs by standard twofold serial dilution method
Escherichia coli [14] = assay: Antibacterial activity against extended-spectrum beta-lactamase producing Escherichia coli 12-3 after 18 to 24 hrs by standard twofold serial dilution method
Staphylococcus aureus [15] = assay: Antibacterial activity against methicillin-sensitive Staphylococcus aureus 12-5 after 18 to 24 hrs by standard twofold serial dilution method
Pseudomonas aeruginosa [16] = assay: Antibacterial activity against Pseudomonas aeruginosa 12-14 after 18 to 24 hrs by standard twofold serial dilution method
Staphylococcus aureus [17] = assay: Antibacterial activity against methicillin-resistant Staphylococcus aureus 12-5 after 18 to 24 hrs by standard twofold serial dilution method
Escherichia coli [18] = assay: Antibacterial activity against extended-spectrum beta-lactamase producing Escherichia coli 12-2 after 18 to 24 hrs by standard twofold serial dilution method
[19] = tested on: Staphylococcus epidermidis; assay: Antibacterial activity against methicillin-sensitive Staphylococcus epidermidis 12-6 after 18 to 24 hrs by standard twofold serial dilution method
Klebsiella pneumoniae [20] = assay: Antibacterial activity against Klebsiella pneumoniae 12-2 after 18 to 24 hrs by standard twofold serial dilution method
Staphylococcus aureus [21] = assay: Antibacterial activity against methicillin-resistant Staphylococcus aureus 12-4 after 18 to 24 hrs by standard twofold serial dilution method
[22] = tested on: Staphylococcus epidermidis; assay: Antibacterial activity against methicillin-resistant Staphylococcus epidermidis 12-6 after 18 to 24 hrs by standard twofold serial dilution method
[23] = tested on: Staphylococcus epidermidis; assay: Antibacterial activity against methicillin-sensitive Staphylococcus epidermidis 12-1 after 18 to 24 hrs by standard twofold serial dilution method
[24] = tested on: Mycobacterium tuberculosis; assay: Antimycobacterial activity against Mycobacterium tuberculosis H37Rv ATCC 27294 by MABA method
[25] = tested on: Staphylococcus epidermidis; assay: Antibacterial activity against methicillin-sensitive Staphylococcus epidermidis 12-8 after 18 to 24 hrs by standard twofold serial dilution method
Staphylococcus aureus [26] = assay: Antibacterial activity against methicillin-sensitive Staphylococcus aureus 12-4 after 18 to 24 hrs by standard twofold serial dilution method
Streptococcus pneumoniae [27] = assay: Antibacterial activity against Streptococcus pneumoniae ATCC 49619 after 18 to 24 hrs by standard twofold serial dilution method
[28] = tested on: Staphylococcus epidermidis; assay: Antibacterial activity against methicillin-resistant Staphylococcus epidermidis 12-1 after 18 to 24 hrs by standard twofold serial dilution method
Staphylococcus aureus [29] = assay: Antibacterial activity against Staphylococcus aureus ATCC 25923 after 18 to 24 hrs by standard twofold serial dilution method
Klebsiella pneumoniae [30] = assay: Antibacterial activity against extended-spectrum beta-lactamase producin Klebsiella pneumoniae 12-3 after 18 to 24 hrs by standard twofold serial dilution method
Staphylococcus aureus [31] = assay: Antibacterial activity against methicillin-resistant Staphylococcus aureus 12-2 after 18 to 24 hrs by standard twofold serial dilution method
Klebsiella pneumoniae [32] = assay: Antibacterial activity against extended-spectrum beta-lactamase producin Klebsiella pneumoniae 12-4 after 18 to 24 hrs by standard twofold serial dilution method

| SMILES | MIC (Escherichia coli [1]) [µg/mL] | MIC (Klebsiella pneumoniae [2]) [µg/mL] | MIC (Escherichia coli [3]) [µg/mL] | MIC (Staphylococcus aureus [4]) [µg/mL] | MIC (Pseudomonas aeruginosa [5]) [µg/mL] | MIC (Klebsiella pneumoniae [6]) [µg/mL] | MIC (Staphylococcus aureus [7]) [µg/mL] | MIC [8] [µg/mL] | MIC (Klebsiella pneumoniae [9]) [µg/mL] | MIC (Klebsiella pneumoniae [10]) [µg/mL] | MIC (Escherichia coli [11]) [µg/mL] | MIC (Escherichia coli [12]) [µg/mL] | MIC (Streptococcus pneumoniae [13]) [µg/mL] | MIC (Escherichia coli [14]) [µg/mL] | MIC (Staphylococcus aureus [15]) [µg/mL] | MIC (Pseudomonas aeruginosa [16]) [µg/mL] | MIC (Staphylococcus aureus [17]) [µg/mL] | MIC (Escherichia coli [18]) [µg/mL] | MIC [19] [µg/mL] | MIC (Klebsiella pneumoniae [20]) [µg/mL] | other results |
| --- | --- | --- | --- | --- | --- | --- | --- | --- | --- | --- | --- | --- | --- | --- | --- | --- | --- | --- | --- | --- | --- |
| NCC1CN(c2c(F)cc3c(=O)c(C(=O)O)cn([C@@H]4C[C@@H]4F)c3c2Cl)C/C1=N/OCc1ccccc1 (stereo not given in full) | > 128 | > 128 | > 128 | 0.5 (≈ 0.967 µM) | 8 (≈ 15.5 µM) | 16 (≈ 31 µM) | 0.5 (≈ 0.967 µM) | 1 (≈ 1.93 µM) | 2 (≈ 3.87 µM) | 2 (≈ 3.87 µM) | 32 (≈ 61.9 µM) | 0.5 (≈ 0.967 µM) | 8 (≈ 15.5 µM) | 32 (≈ 61.9 µM) | 0.5 (≈ 0.967 µM) | 64 (≈ 124 µM) | 0.5 (≈ 0.967 µM) | > 128 | 0.5 (≈ 0.967 µM) | 2 (≈ 3.87 µM) | MIC (Staphylococcus aureus [21]): 0.5 µg/mL (≈ 0.967 µM); MIC [22]: 64 µg/mL (≈ 124 µM); MIC [23]: 0.5 µg/mL (≈ 0.967 µM); MIC [24]: 16 µg/mL (≈ 31 µM); MIC [25]: 64 µg/mL (≈ 124 µM); MIC (Staphylococcus aureus [26]): 0.25 µg/mL (≈ 0.484 µM); MIC (Streptococcus pneumoniae [27]): 1 µg/mL (≈ 1.93 µM); MIC [28]: 0.5 µg/mL (≈ 0.967 µM); MIC (Staphylococcus aureus [29]): 0.25 µg/mL (≈ 0.484 µM); MIC (Klebsiella pneumoniae [30]): > 128 µg/mL; MIC (Staphylococcus aureus [31]): 0.5 µg/mL (≈ 0.967 µM); MIC (Klebsiella pneumoniae [32]): 32 µg/mL (≈ 61.9 µM) |
| CO/N=C1/CCN(c2nc3c(cc2F)c(=O)c(C(=O)O)cn3[C@@H]2C[C@@H]2F)CC1N (stereo not given in full) | > 128 | > 128 | > 128 | 2 (≈ 4.91 µM) | 16 (≈ 39.3 µM) | 32 (≈ 78.6 µM) | 2 (≈ 4.91 µM) | < 0.008 | 2 (≈ 4.91 µM) | 1 (≈ 2.45 µM) | 8 (≈ 19.6 µM) | 0.25 (≈ 0.614 µM) | 4 (≈ 9.82 µM) | 16 (≈ 39.3 µM) | 2 (≈ 4.91 µM) | 128 (≈ 314 µM) | > 128 | > 128 | 1 (≈ 2.45 µM) | 1 (≈ 2.45 µM) | MIC (Staphylococcus aureus [21]): > 128 µg/mL; MIC [22]: 1 µg/mL (≈ 2.45 µM); MIC [23]: 1 µg/mL (≈ 2.45 µM); MIC [24]: 4 µg/mL (≈ 9.82 µM); MIC [25]: < 0.008 µg/mL; MIC (Staphylococcus aureus [26]): 1 µg/mL (≈ 2.45 µM); MIC (Streptococcus pneumoniae [27]): 1 µg/mL (≈ 2.45 µM); MIC [28]: > 128 µg/mL; MIC (Staphylococcus aureus [29]): 1 µg/mL (≈ 2.45 µM); MIC (Klebsiella pneumoniae [30]): > 128 µg/mL; MIC (Staphylococcus aureus [31]): > 128 µg/mL; MIC (Klebsiella pneumoniae [32]): 64 µg/mL (≈ 157 µM) |
| CO/N=C1/CN(c2nc3c(cc2F)c(=O)c(C(=O)O)cn3[C@@H]2C[C@@H]2F)CC1CN (stereo not given in full) | 64 (≈ 157 µM) | 64 (≈ 157 µM) | > 128 | 0.125 (≈ 0.307 µM) | 0.5 (≈ 1.23 µM) | 2 (≈ 4.91 µM) | 0.125 (≈ 0.307 µM) | 0.5 (≈ 1.23 µM) | 0.25 (≈ 0.614 µM) | 0.25 (≈ 0.614 µM) | 0.5 (≈ 1.23 µM) | 0.06 (≈ 0.147 µM) | 0.25 (≈ 0.614 µM) | 32 (≈ 78.6 µM) | 0.125 (≈ 0.307 µM) | 8 (≈ 19.6 µM) | 16 (≈ 39.3 µM) | 128 (≈ 314 µM) | 0.125 (≈ 0.307 µM) | 0.25 (≈ 0.614 µM) | MIC (Staphylococcus aureus [21]): 32 µg/mL (≈ 78.6 µM); MIC [22]: 4 µg/mL (≈ 9.82 µM); MIC [23]: 0.125 µg/mL (≈ 0.307 µM); MIC [24]: 0.5 µg/mL (≈ 1.23 µM); MIC [25]: 1 µg/mL (≈ 2.45 µM); MIC (Staphylococcus aureus [26]): 0.06 µg/mL (≈ 0.147 µM); MIC (Streptococcus pneumoniae [27]): 0.125 µg/mL (≈ 0.307 µM); MIC [28]: 4 µg/mL (≈ 9.82 µM); MIC (Staphylococcus aureus [29]): 0.015 µg/mL (≈ 0.0368 µM); MIC (Klebsiella pneumoniae [30]): 32 µg/mL (≈ 78.6 µM); MIC (Staphylococcus aureus [31]): 16 µg/mL (≈ 39.3 µM); MIC (Klebsiella pneumoniae [32]): 0.5 µg/mL (≈ 1.23 µM) |
| CCO/N=C1/CN(c2nc3c(cc2F)c(=O)c(C(=O)O)cn3[C@@H]2C[C@@H]2F)CC1CN (stereo not given in full) | 16 (≈ 38 µM) | 32 (≈ 75.9 µM) | 128 (≈ 304 µM) | 0.015 (≈ 0.0356 µM) | 0.125 (≈ 0.297 µM) | 0.125 (≈ 0.297 µM) | 0.015 (≈ 0.0356 µM) | 0.03 (≈ 0.0712 µM) | 0.03 (≈ 0.0712 µM) | 0.125 (≈ 0.297 µM) | 0.06 (≈ 0.142 µM) | < 0.008 | 0.06 (≈ 0.142 µM) | 16 (≈ 38 µM) | 0.015 (≈ 0.0356 µM) | 2 (≈ 4.75 µM) | 4 (≈ 9.49 µM) | 64 (≈ 152 µM) | 0.015 (≈ 0.0356 µM) | 0.06 (≈ 0.142 µM) | MIC (Staphylococcus aureus [21]): 4 µg/mL (≈ 9.49 µM); MIC [22]: 4 µg/mL (≈ 9.49 µM); MIC [23]: < 0.008 µg/mL; MIC [24]: 0.5 µg/mL (≈ 1.19 µM); MIC [25]: 0.25 µg/mL (≈ 0.593 µM); MIC (Staphylococcus aureus [26]): 0.015 µg/mL (≈ 0.0356 µM); MIC (Streptococcus pneumoniae [27]): 0.03 µg/mL (≈ 0.0712 µM); MIC [28]: 1 µg/mL (≈ 2.37 µM); MIC (Staphylococcus aureus [29]): < 0.008 µg/mL; MIC (Klebsiella pneumoniae [30]): 16 µg/mL (≈ 38 µM); MIC (Staphylococcus aureus [31]): 4 µg/mL (≈ 9.49 µM); MIC (Klebsiella pneumoniae [32]): 8 µg/mL (≈ 19 µM) |
| CO/N=C1/CN(c2nc3c(cc2F)c(=O)c(C(=O)O)cn3[C@@H]2C[C@@H]2F)[C@H]1CN | 128 (≈ 325 µM) | 128 (≈ 325 µM) | > 128 | 0.06 (≈ 0.153 µM) | 2 (≈ 5.08 µM) | 2 (≈ 5.08 µM) | 0.06 (≈ 0.153 µM) | 0.5 (≈ 1.27 µM) | 0.25 (≈ 0.636 µM) | 0.25 (≈ 0.636 µM) | 1 (≈ 2.54 µM) | 0.06 (≈ 0.153 µM) | 2 (≈ 5.08 µM) | 16 (≈ 40.7 µM) | 0.06 (≈ 0.153 µM) | 32 (≈ 81.4 µM) | 32 (≈ 81.4 µM) | 128 (≈ 325 µM) | 0.06 (≈ 0.153 µM) | 0.25 (≈ 0.636 µM) | MIC (Staphylococcus aureus [21]): 32 µg/mL (≈ 81.4 µM); MIC [22]: 4 µg/mL (≈ 10.2 µM); MIC [23]: 0.06 µg/mL (≈ 0.153 µM); MIC [24]: 1 µg/mL (≈ 2.54 µM); MIC [25]: 2 µg/mL (≈ 5.08 µM); MIC (Staphylococcus aureus [26]): 0.03 µg/mL (≈ 0.0763 µM); MIC (Streptococcus pneumoniae [27]): 0.5 µg/mL (≈ 1.27 µM); MIC [28]: 4 µg/mL (≈ 10.2 µM); MIC (Staphylococcus aureus [29]): 0.125 µg/mL (≈ 0.318 µM); MIC (Klebsiella pneumoniae [30]): 64 µg/mL (≈ 163 µM); MIC (Staphylococcus aureus [31]): 32 µg/mL (≈ 81.4 µM); MIC (Klebsiella pneumoniae [32]): 8 µg/mL (≈ 20.3 µM) |
